# “Also recorded” adds a separate entry of the source.
# How the values were obtained:
# [1] = test system: bladder carcinoma in situ (CIS) and other bladder tumor lesions; assay: HAL fluorescence detection of bladder lesions vs. white light cystoscopy; type: in vivo, human
# Method: Photodynamic detection of bladder carcinoma in situ (CIS) (flat cancer lesions) after exposure to a hexyl aminolevulinate composition (8 mM HAL in PBS: 4.3 mM KH2PO4, 4.3 mM Na2HPO4, 120 mM NaCl, pH 6.0) for one hour was performed and compared to white light cystoscopy in patients with bladder cancer (FIG. 31).
# About 50 ml of HAL solution was instilled into the bladder. The solution was allowed to remain in the bladder for one hour. After bladder evacuation, the bladder was inspected by using a cystoscope (Storz D-Light, Karl Storz, Tuttlingen, Germany) and mapped under white light followed by inspection and mapping of all fluorescing lesions using blue light (380-450 nm) (light of wavelength of about 405 nm could have been used as the PpIX absorption spectrum includes a maximum near 405 nm). After mapping of the lesions in white and blue light separately, biopsies and resected tissue were obtained of all lesions and suspicious areas. Finally, one biopsy from normal appearing urothelium (negative in white and blue light) was taken. Tissue material was prepared by the local pathlogist and examined by both local and a central pathologist to verify the diagnosis.
# In another study, an HAL composition detected 98% of tumor lesions in patients (regardless of tumor type), whereas use of white light identified only 73% of the lesions. The HAL solution composition and instillation and cystoscopy procedure is described above. The cystoscopy findings were verified by examination (by a pathologist) of 5 random biopsies taken from each patient. There were a total of 143 verified tumors in 45 patients including carcinoma in situ (CIS) and Ta or T1 lesions. HAL cystoscopy was performed in 43 of the patients with a detection rate of 96% (43/45). White light cystoscopy was performed in 33 of the patients with a detection rate of 73% (33/45).
# [2] = test system: bladder cancer cells from patient urine; assay: Detection of bladder cancer cells in urine; type: cell-based, human; details: 40 μg/ml or 0.15 mM, 4 hours at 37° C., blue light 390-440 nm
# Method: Urine of a patient with bladder cancer was centrifuged (1500 rpm for 5 min) and resuspended into cell growth medium containing 10% fetal calf serum and HAL hydrochloride (40 μg/ml or 0.15 mM) for 4 hours at 37° C. in the dark. The cells fluoresced under blue light (390-440 nm) after being incubated with HAL HCl (FIG. 28). […] This was confirmed by cytology.
# [3] = test system: basal cell carcinoma (BCC) lesions and surrounding normal skin; assay: PpIX fluorescence in human BCC and surrounding normal skin by optical-fiber based system; type: in vivo; details: 20% for 4 hours, topical
# Method: The PpIX fluorescence in the BCC lesions and surrounding normal skin of human patients was measured in situ by optical-fiber based system after topical application of 20% free ALA and its derivatives for various time intervals.
# The PpIX fluorescence ratios between BCC lesions and surrounding normal skin after topical application of ALA or its esters (20% for 4 hours), was examined using methods described in previous examples.
# [4] = test system: Human transitional cell carcinoma cells (T24); assay: Induced fluorescence in T24 cells in vitro; type: cell-based
# Method: Human transitional cell carcinoma cells (T24) were used. ALA and ALA esters were dissolved in growth medium not containing serum. Fluorescence was observed using an excitation wavelength of 410 nm and detecting emission at 640 nm.
# [5] = test system: cervical intraepithelial lesions (CIN); assay: Fluorescence detection of cervical intraepithelial lesions using HAL; type: in vivo, human
# Method: This study involved 32 non-pregnant women with histologically proven squamous intraepithelial lesions (CIN).
# 5 to 20 ml of a cold-cream containing 0.5% (w/w) HAL hydrochloride was applied locally by means of a cervical cap. Random biopsies were performed at time points ranging from 5 min to 7 hours to assess the selective accumulation of HAL, as shown by fluorescence images. Image analysis on frozen tissue sections was carried out using a Zeiss Axiophot image analysis system.
# A total of 112 biopsies were obtained from 32 patients. From these biopsies approximately 2000 fluorescence images were produced. […] Immediately after the biopsies were taken, the tissue was quickly frozen in liquid nitrogen and stored at −70° C. prior to use in order to stop any formation/degradation of cellular porphyrins. Tissue sections were prepared in the dark to avoid photobleaching. The frozen tissue blocks were mounted in Tissue Tek embedding compound (BDH) and a series of sections were prepared using a cryostat. Tissue sections were mounted on glass slides and images were recorded with a grey-scale camera. A band pass filter (BP395-440 nm) was used for excitation, while a second band-pass filter was used to record the specific Pp fluorescence.
smiles,measurement,setting,value
"CCCCCCOC(=O)CCC(=O)CN.Cl [HAL, n-hexyl 5-aminolevulinate hydrochloride]",CIS lesion detection rate as verified by biopsies,"[1]; 8 mM HAL in PBS, one hour instillation, 218 patients for analysis",97%
same,carcinoma in situ lesions identified in patients with CIS lesions only,"[1]; 13 patients with CIS lesions only, 12/13",92%
same,detection rate of HAL cystoscopy (patients),"[1]; another study, 43/45",96%
same,tumor lesions detected (regardless of tumor type),"[1]; another study, 143 verified tumors in 45 patients",98%
same,fluorescence of urine cells under blue light,[2],only cancer cells fluoresced
same,PpIX fluorescence ratios between BCC lesions and surrounding normal skin (selectivity) compared with free ALA,[3],more selectively induce PpIX in BCC lesions than free ALA
same,maximum fluorescence relative to the maximum induced by aminolevulinic acid,[4]; same conditions,nearly three times
same,concentration inducing maximum fluorescence in cells in vitro,"[4]; serum-free medium, excitation 410 nm, emission 640 nm",about 13 mM
same,fluorescence of cervical lesions after topical application,"[5]; 0.5% (w/w) HAL hydrochloride cold-cream, hydrochloride",excellent fluorescence; also recorded: high and homogenous fluorescence in the lesions
same,adverse reactions / tolerability,"[5]; 0.5% cream applied to the cervix, patients, hydrochloride",No local or systemic adverse reactions; also recorded: well tolerated
same,fluorescence after 5 minutes application,"[5]; 0.5% cream, 5 minutes",low
same,fluorescence throughout the lesion at application times of 30 minutes and longer,"[5]; 0.5% cream, 30 minutes and longer",high and homogenous fluorescence throughout the lesion
same,selectivity of fluorescence for precancerous lesions,"[5]; 0.5% cream, cervical biopsies of CIN lesions",excellent selectivity for precancerous lesions
same,selectivity at application time more than three hours,"[5]; 0.5% cream, more than three hours",the selectivity was reduced
same,selectivity after 1-2 hour application,"[5]; HAL 0.5% cream, 1-2 hour",excellent
